Measured values: US20150093335A1, “CELL-TARGETED MAGNETIC NANO-MATERIAL AND BIOMEDICAL USES THEREOF” (Institute of Geology and Geophysics, Chinese Academy of …, priority 2012, published 2015)
Where a name gives a salt, the structure may show the parent alone.

Columns and labels:
[1] = Longitudinal (r1) and transversal relaxivity measurement of gadolinium materials, 4.7T MRI; assay type: physicochemical; conditions: per gadolinium concentration 0-1 mM
Text: Gd contrast agents in clinical use can enhance the signal intensity of the lesion area during T1-weighted magnetic resonance imaging, thus showing a bright area. Since human naked eye is more sensitive to bright matters, these contrast agents can better meet the needs of human naked eye. But Gd contrast agents in clinical use have no targeting feature and have a low relaxation rate, thus failing to meet the needs for early diagnosis of diseases such as tumors. In the present invention, a tumor-targeted ferritin shell is used, and in the cavity thereof a gadolinium-iron nano-material is formed by biomimetic mineralization. By using purified human H-subunit ferritin as a template, a ferrous salt, a gadolinium salt and oxidant hydrogen peroxide are added into a solution of recombinant human ferritin, controlling the pH at 8.5 and the temperature at 65° C. […] The numbers of iron atoms and gadolinium atoms are measured through inductively coupled plasma mass spectrometry. The longitudinal relaxivity (r1) and transversal relaxivity (r2) of the material are measured using a 4.7T magnetic resonance imaging system. […]

U87MG human glioma = test: 4.7T MRI of in-situ glioma; assay type: in vivo, nude mouse; conditions: 0.1 mmol/kg tail vein, scanned 2 hours, glioma about 1-2 mm
Method: 10^6 U87MG human glioma cells (purchased from ATCC, cultivated at Nanjing KeyGEN BioTECH development Ltd.) are inoculated onto the cerebral cortex of a nude mouse by in-situ penetration through the cranium and its tympanic membrane slightly off the median line of the cerebrum. Magnetic resonance imaging is conducted after about 3-4 days. The nude mouse is anesthetized by respiratory anesthesia and an intravenous needle is detained in tail vein. The mouse is put into a 4.7T MRI system and stays in stationary state in the course of magnetic resonance scanning. The commercialized Gd-DTPA contrast agent (magnevist, produced by Bayer Corp.) is first injected through tail vein as reference (injection dosage: 0.1 mmol/kg) and is scanned continuously for 2 hours in the magnetic resonance chamber. After the Gd-DTPA is completely metabolized and excreted, human H-subunit magnetoferritin is injected through tail vein (injection dosage: 20 mg Fe/kg mouse weight) and is scanned continuously for 3 hours. […]
Purified human H-subunit ferritin is partially or totally denatured using denaturant such as guanidine hydrochloride (1-7 M) or urea (2-8 M) etc. such that the subunits are partially or totally depolymerized. […] Protein quantification is conducted using BCA protein quantification reagent kit. The number of Gd atoms encapsulated in a single protein molecule is measured using ICP-MS. […]

NCI-H460 lung cancer = test: Treatment experiment on lung cancer in vivo

Compound | longitudinal relaxivity r1 [1] | T1-weighted MRI signal intensity of the glioma area after injection (U87MG human glioma) | tumor volume difference versus PBS control group (NCI-H460 lung cancer; 8 days after administration, doxorubicin 3 mg/kg every 3 days) | average tumor inhibition rate (NCI-H460 lung cancer; tumor weights, doxorubicin 3 mg/kg tail vein every 3 days, 15 days, 3 mice per group) [%]
O=C([O-])CN(CCN(CC(=O)[O-])CC(=O)O)CCN(CC(=O)[O-])CC(=O)O.[Gd+3] [Gd-DTPA] | about 5.9 mM^−1S^−1 | no evident change |  | 
COc1cccc2c1C(=O)c1c(O)c3c(c(O)c1C2=O)C[C@@](O)(C(=O)CO)C[C@@H]3O[C@H]1C[C@H](N)[C@H](O)[C@H](C)O1 [doxorubicin hydrochloride] |  |  | minute difference | 23
